Where “and” joins values, the source holds several entries; their conditions need not be identical. Equal entries are not always repeated.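 Briefly, cells in 96-well plates were exposed to five compound concentrations for 48 h, and endpoints were estimated by linear interpolation. Here, GI50 denotes the concentration required for 50% inhibition of growth. Definition used: TGI = concentration required for complete inhibition of growth.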
How the values were obtained:
Assay in all cases: NCI anticancer screen, dose series, 48 h
[1] = test system: HS 578T breast
[2] = test system: HT29 colon
[3] = test system: SR leukemia
[4] = test system: OVCAR-5 ovarian
[5] = test system: MOLT-4 leukemia
[6] = test system: NCI/ADR-RES ovarian
[7] = test system: TK-10 renal
[8] = test system: SK-OV-3 ovarian
[9] = test system: HCT-15 colon
[10] = test system: NCI-H460 lung
[11] = test system: OVCAR-4 ovarian
[12] = test system: MCF7 breast
[13] = test system: HCT-116 colon
[14] = test system: M14 melanoma
[15] = test system: MALME-3M melanoma
[16] = test system: SW-620 colon
[17] = test system: ACHN renal
[18] = test system: SF-295 CNS
[19] = test system: DU-145 prostate
[20] = test system: HL-60(TB) leukemia
[21] = test system: SF-539 CNS
[22] = test system: NCI-H522 lung
[23] = test system: SK-MEL-28 melanoma
[24] = test system: HOP-62 NSCLC
[25] = test system: PC-3 prostate
[26] = test system: CCRF-CEM leukemia
[27] = test system: LOX IMVI melanoma
[28] = test system: KM12 colon
[29] = test system: SNB-19 CNS
[30] = test system: UACC-257 melanoma
[31] = test system: SF-268 CNS
[32] = test system: SK-MEL-5 melanoma
[33] = test system: MDA-MB-435
[34] = test system: UO-31 renal
[35] = test system: NCI-H226 lung
[36] = test system: UACC-62 melanoma
[37] = test system: EKVX NSCLC
[38] = test system: IGROV1 ovarian
[39] = test system: SK-MEL-2 melanoma
[40] = test system: K-562 leukemia
[41] = test system: BT-549 breast
[42] = test system: SN12C renal
[43] = test system: 786-0 renal
[44] = test system: T-47D breast
[45] = test system: HOP-92 NSCLC
[46] = test system: RPMI-8226 leukemia
[47] = test system: NCI-H23 lung
[48] = test system: U251 CNS
[49] = test system: HCC-2998 colon
[50] = test system: MDA-MB-231 breast
[51] = test system: OVCAR-8 ovarian
[52] = test system: SNB-75 CNS
[53] = test system: A549 NSCLC

`COC(=O)[C@@H](C)C[C@H](Cc1ccccc1)NC(=O)c1cccc([C@@H](C[C@H](C(C)C)N(C)C(=O)[C@@H](NC(=O)[C@H]2CCCCN2C)C2CC2)OC(C)=O)n1` was tested, and the TGI [1] was 33.3 µM and > 100 µM, the GI50 [2] was 0.00333 µM and the GI50 [3] was 0.00333 µM. For the same compound, the TGI [3] was 33.3 µM and 69.9 µM, the TGI [4] was 33.3 µM and > 100 µM and the TGI [5] was 33.3 µM and > 100 µM. The GI50 [6] was 5.06 µM and 4.67 µM, the TGI [6] was 33.3 µM and > 100 µM and the TGI [7] was 33.3 µM and > 100 µM. The GI50 [8] was 0.00333 µM and 0.0265 µM, the TGI [8] was 33.3 µM and > 100 µM and the TGI [9] was 20.6 µM and > 100 µM. The GI50 [10] was 0.00333 µM and 0.0297 µM, the TGI [10] was 33.3 µM and > 100 µM and the TGI [11] was 33.3 µM and > 100 µM. The GI50 [12] was 0.00333 µM, the TGI [12] was 33.3 µM and > 100 µM and the GI50 [13] was 0.00333 µM. For the same compound, the TGI [13] was 3.98 µM and 14.4 µM, the TGI [14] was 0.0358 µM and the TGI [15] was 33.3 µM and > 100 µM. The GI50 [16] was 0.00333 µM, the TGI [16] was 33.3 µM and > 100 µM and the TGI [17] was 33.3 µM and > 100 µM. It also gave a GI50 [18] of 0.0363 µM, a TGI [18] greater than 100 µM and a GI50 [19] of 0.00333 µM. For the same compound, the TGI [19] was 33.3 µM and > 100 µM, the TGI [20] was 0.0111 µM and the GI50 [21] was 0.02 µM. It also gave a TGI [21] of 0.0764 µM, a TGI [22] of 37.3 µM and a GI50 [23] of 5.03 µM. For the same compound, the TGI [23] was 33.3 µM, the GI50 [24] was 0.00333 µM and 0.0296 µM and the GI50 [25] was 0.00333 µM and 0.0223 µM. The TGI [25] was 33.3 µM and > 100 µM, the GI50 [26] was 0.00333 µM and 0.0234 µM and the TGI [26] was 33.3 µM and > 100 µM. The GI50 [27] was 0.00333 µM and 0.019 µM, the TGI [27] was 33.3 µM and > 100 µM and the GI50 [28] was 0.00333 µM and 0.0298 µM. For the same compound, the TGI [28] was 33.3 µM and > 100 µM, the GI50 [29] was 0.00333 µM and the TGI [29] was 33.3 µM and > 100 µM. The GI50 [30] was greater than 100 µM, the TGI [30] was greater than 100 µM and the TGI [31] was 33.3 µM and > 100 µM. The TGI [32] was 1.14 µM, the TGI [33] was 0.0143 µM and the GI50 [34] was 0.0766 µM. For the same compound, the TGI [34] was 33.3 µM, the TGI [35] was 33.3 µM and > 100 µM and the GI50 [36] was 0.00333 µM. The TGI [36] was 33.3 µM, the TGI [37] was 33.3 µM and > 100 µM and the GI50 [38] was 0.00333 µM. The TGI [38] was 33.3 µM and > 100 µM, the GI50 [39] was 0.00333 µM and the TGI [39] was 33.3 µM and > 100 µM. For the same compound, the GI50 [40] was 0.00333 µM, the TGI [40] was 33.3 µM and > 100 µM and the GI50 [41] was 0.00333 µM. For the same compound, the TGI [42] was 33.3 µM and > 100 µM, the TGI [43] was 11.3 µM and > 100 µM and the GI50 [44] was greater than 33.3 µM. For the same compound, the TGI [44] was greater than 33.3 µM, the TGI [45] was 13.6 µM and 86.6 µM and the GI50 [46] was 0.00333 µM. For the same compound, the TGI [46] was 7.63 µM and 55.6 µM, the TGI [47] was 33.3 µM and > 100 µM and the TGI [48] was 33.3 µM and > 100 µM. The TGI [49] was 33.3 µM and > 100 µM, the GI50 [50] was 0.00333 µM and 0.0281 µM and the TGI [50] was 4.35 µM and 24 µM. For the same compound, the TGI [51] was 33.3 µM and > 100 µM, the TGI [52] was 33.3 µM and > 100 µM and the TGI [53] was 33.3 µM and > 100 µM.

Source: PubChem BioAssay (NCI)
